Here are results for 24 compounds from patent publication US9926281B2 (priority 2014, dated 2018).

As usually defined, the IC50 is the point on the concentration scale where inhibition reaches its midpoint.

Test [1] concerns the target T1, human ADAMTS-5 (Homo sapiens (Human), UniProt Q9UNA0). The conditions noted are these: read-out: hADAMTS-5 potency IC50.
Protocol: Finally, the fluorescence is read on the Envision (Perkin Elmer) after an incubation of 90 min at 37° C.
For test [2], the target named is human TACE (Homo sapiens (Human), UniProt P78536). To be noted: read-out: TACE potency IC50.
For test [3], the target named is human MMP14 (Homo sapiens (Human), UniProt P50281). To be noted: read-out: hMMP-14 potency IC50.
In test [4] the target is rnADAMTS-5 (1-564-6H) (Rattus norvegicus, UniProt Q6TY19). To be noted: read-out: Rat ADAMTS-5 potency IC50.
The target in test [5] is T1, human ADAMTS-5. The conditions noted are these: read-out: hADAMTS-5 potency IC50. The source holds these as a separate data set.
Test [6] concerns the target human MMP13 (Homo sapiens (Human), UniProt P45452). To be noted: read-out: hMMP-13 potency IC50.
Protocol: Human MMP13 is preactivated by incubated the enzyme in the same buffer complemented with 1 mM freshly prepared p-Aminophenylmercuric acetate (AMPA) for 1 hour at 37° C.

Read-outs that look alike come from different tables or passages of the source.

T1 sequence (Q9UNA0 262-930): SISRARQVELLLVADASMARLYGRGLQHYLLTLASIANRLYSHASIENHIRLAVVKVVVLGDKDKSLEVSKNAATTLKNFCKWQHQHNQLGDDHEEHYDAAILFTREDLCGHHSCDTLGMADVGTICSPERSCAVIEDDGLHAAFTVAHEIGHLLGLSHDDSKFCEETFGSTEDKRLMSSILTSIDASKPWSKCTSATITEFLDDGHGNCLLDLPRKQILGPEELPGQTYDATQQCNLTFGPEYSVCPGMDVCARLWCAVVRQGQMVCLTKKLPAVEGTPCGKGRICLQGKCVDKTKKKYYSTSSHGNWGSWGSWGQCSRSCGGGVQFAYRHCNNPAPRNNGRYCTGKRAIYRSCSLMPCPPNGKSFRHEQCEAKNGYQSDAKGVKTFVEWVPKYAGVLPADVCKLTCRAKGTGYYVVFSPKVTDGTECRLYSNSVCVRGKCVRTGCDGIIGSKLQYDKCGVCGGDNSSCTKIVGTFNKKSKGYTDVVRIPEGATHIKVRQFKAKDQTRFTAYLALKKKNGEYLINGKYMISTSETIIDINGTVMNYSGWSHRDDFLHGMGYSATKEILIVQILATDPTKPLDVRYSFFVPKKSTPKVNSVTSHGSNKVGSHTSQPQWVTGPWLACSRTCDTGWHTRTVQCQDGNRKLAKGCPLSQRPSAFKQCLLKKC
Sequence of human TACE (P78536 whole entry, looked up, change not shown): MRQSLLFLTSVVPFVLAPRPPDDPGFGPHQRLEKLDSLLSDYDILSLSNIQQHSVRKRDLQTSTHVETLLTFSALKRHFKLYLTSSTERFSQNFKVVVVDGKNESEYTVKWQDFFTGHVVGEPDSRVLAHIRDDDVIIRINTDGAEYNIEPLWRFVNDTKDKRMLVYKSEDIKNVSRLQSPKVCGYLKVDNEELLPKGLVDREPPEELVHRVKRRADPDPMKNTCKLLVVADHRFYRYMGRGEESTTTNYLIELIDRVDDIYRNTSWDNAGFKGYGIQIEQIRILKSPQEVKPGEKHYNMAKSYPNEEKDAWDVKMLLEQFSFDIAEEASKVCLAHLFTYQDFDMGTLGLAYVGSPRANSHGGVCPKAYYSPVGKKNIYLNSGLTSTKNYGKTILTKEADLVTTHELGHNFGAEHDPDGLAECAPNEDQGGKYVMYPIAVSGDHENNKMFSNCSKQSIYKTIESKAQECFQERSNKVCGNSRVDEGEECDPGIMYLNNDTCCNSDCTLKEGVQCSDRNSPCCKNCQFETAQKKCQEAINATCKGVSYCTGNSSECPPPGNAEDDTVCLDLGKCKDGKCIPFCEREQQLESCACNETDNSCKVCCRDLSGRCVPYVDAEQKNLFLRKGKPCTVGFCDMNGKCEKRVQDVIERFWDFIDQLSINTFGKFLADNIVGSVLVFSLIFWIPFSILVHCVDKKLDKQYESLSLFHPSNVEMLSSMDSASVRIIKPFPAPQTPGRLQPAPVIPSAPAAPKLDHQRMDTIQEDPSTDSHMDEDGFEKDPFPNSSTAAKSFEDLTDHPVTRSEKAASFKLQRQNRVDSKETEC

With `C[C@H]1CN(C(=O)CCC2(c3ccccn3)NC(=O)NC2=O)CCN1c1cc(F)cc(Cl)c1` (stereo partly drawn) [compound 346, 5-[3-[(3S)-4-(3-chloro-5-fluoro-phenyl)-3-methyl-piperazin-1-yl]-3-oxo-propyl]-5-(2-pyridyl)imidazolidine-2,4-dione], the IC50 in test [1] was 37 nM; in test [2], more than 4000 nM; in test [3] it was more than 4000 nM.

`C[C@@H](C[C@@]1(C)NC(=O)NC1=O)C(=O)N1CCN(c2cc(F)cc(-c3cn[nH]c3)c2)[C@@H](C)C1` [compound 375, 5-[3-[(3S)-4-[3-fluoro-5-(1H-pyrazol-4-yl)phenyl]-3-methyl-piperazin-1-yl]-2-methyl-3-oxo-propyl]-5-methyl-imidazolidine-2,4-dione]: the IC50 in test [1] is 30 nM; in test [2], 1130 nM; in test [3] it was more than 20000 nM.

On to `C[C@H]1CN(C(=O)CCC2(c3cccnc3)NC(=O)NC2=O)CCN1c1cc(F)cc(F)c1` (stereo partly drawn) [compound 320, 5-[3-[(3S)-4-(3,5-difluorophenyl)-3-methyl-piperazin-1-yl]-3-oxo-propyl]-5-(3-pyridyl)imidazolidine-2,4-dione], for which the IC50 in test [1] is 48 nM; in test [2], more than 4000 nM; in test [3], more than 20000 nM.

`C[C@@H](CC1(C2CC2)NC(=O)NC1=O)C(=O)N1CCN(c2cccc(-c3cn[nH]c3)c2)[C@@H](C)C1` (stereo partly drawn) [compound 339, 5-cyclopropyl-5-[(2S)-2-methyl-3-[(3S)-3-methyl-4-[3-(1H-pyrazol-4-yl)phenyl]piperazin-1-yl]-3-oxo-propyl]imidazolidine-2,4-dione]: the IC50 in test [1] was 33 nM; in test [2] it was more than 4000 nM; in test [3], 1230 nM.

Consider `C[C@H]1CN(C(=O)CCC2(c3cccnc3)NC(=O)NC2=O)CCN1c1cccc(F)c1` (stereo partly drawn) [compound 319, 5-[3-[(3S)-4-(3-fluorophenyl)-3-methyl-piperazin-1-yl]-3-oxo-propyl]-5-(3-pyridyl)imidazolidine-2,4-dione], for which the IC50 was 94 nM in test [1], more than 4000 nM in test [2] and more than 4000 nM in test [3].

Take `C[C@H]1CN(C(=O)CCC2(c3cnccn3)NC(=O)NC2=O)CCN1c1cccc(F)c1` (stereo partly drawn) [compound 350, 5-[3-[(3S)-4-(3-fluorophenyl)-3-methyl-piperazin-1-yl]-3-oxo-propyl]-5-pyrazin-2-yl-imidazolidine-2,4-dione]: the results for the IC50 in test [1], in test [2] and in test [3] were 62 nM, more than 20000 nM and 1310 nM, respectively.

Turning to `C[C@H]1CN(C(=O)CCC2(c3ccncc3)NC(=O)NC2=O)CCN1c1ccc(F)c(Cl)c1` (stereo partly drawn) [compound 288, 5-[3-[(3S)-4-(3-chloro-4-fluoro-phenyl)-3-methyl-piperazin-1-yl]-3-oxo-propyl]-5-(4-pyridyl)imidazolidine-2,4-dione], the IC50 in test [1] was 72 nM; in test [2], more than 4000 nM; in test [3], more than 4000 nM.

With `CC(CC1(C2CC2)NC(=O)NC1=O)C(=O)N1CCN(c2cccc(Cl)c2)CC1` (stereo not drawn) [compound 121, 5-[3-[4-(3-chlorophenyl)piperazin-1-yl]-2-methyl-3-oxo-propyl]-5-cyclopropyl-imidazolidine-2,4-dione], the IC50 was found to be 24 nM in test [4]; 15 nM in test [5]; 15 nM in test [1]; 1100 nM in test [2]; 70.6 nM in test [6].

With `COCC1(CC(C)C(=O)N2CCN(c3cc(Cl)cc(Cl)c3C)[C@@H](C)C2)NC(=O)NC1=O` (stereo partly drawn) [compound 227, 5-[3-[(3S)-4-(3,5-dichloro-2-methyl-phenyl)-3-methyl-piperazin-1-yl]-2-methyl-3-oxo-propyl]-5-(methoxymethyl)imidazolidine-2,4-dione], in test [3], the half-maximal inhibitory concentration (IC50) is more than 20000 nM.

As to `O=C1NC(=O)C(CCC(=O)N2CCN(c3cccc(Cl)c3)CC2)(C2CCC2)N1` (stereo not drawn) [compound 70, 5-[3-[4-(3-chlorophenyl)piperazin-1-yl]-3-oxo-propyl]-5-cyclobutyl-imidazolidine-2,4-dione], the IC50 is 205 nM in test [4], 253 nM in test [5], more than 20000 nM in test [2] and more than 4000 nM in test [6].

Consider `Cc1ccc(F)cc1N1CCN(C(=O)CCC2(c3ccccn3)NC(=O)NC2=O)CC1` (stereo not drawn) [compound 104, 5-[3-[4-(5-fluoro-2-methyl-phenyl)piperazin-1-yl]-3-oxo-propyl]-5-(2-pyridyl)imidazolidine-2,4-dione], for which the half-inhibitory concentration (IC50) was 41 nM in test [4], 43 nM in test [5], 461 nM in test [2] and more than 20000 nM in test [6].

On to `CN(C)CCOc1ccc(C2(CCC(=O)N3CCN(c4cccc(Cl)c4)CC3)NC(=O)NC2=O)cc1` (stereo not drawn) [compound 80, 5-[3-[4-(3-chlorophenyl)piperazin-1-yl]-3-oxo-propyl]-5-[4-(2-dimethylaminoethyloxy)phenyl]imidazolidine-2,4-dione], for which the IC50 in test [4] was 429 nM; in test [5], 257 nM; in test [2], more than 20000 nM; in test [6] it was 3790 nM.

Take `C[C@H]1CN(C(=O)CCC2(c3ccccc3)NC(=O)NC2=O)CCN1c1ccccc1` (stereo partly drawn) [compound 137, 5-[3-[(3S)-3-methyl-4-phenyl-piperazin-1-yl]-3-oxo-propyl]-5-phenyl-imidazolidine-2,4-dione]: the IC50 is 249 nM in test [4], 240 nM in test [5], more than 20000 nM in test [2] and more than 20000 nM in test [6].

`Cc1ccc(C)c(N2CCN(C(=O)CCC3(c4ccccn4)NC(=O)NC3=O)CC2)c1` (stereo not drawn) [compound 87, 5-[3-[4-(2,5-dimethylphenyl)piperazin-1-yl]-3-oxo-propyl]-5-(2-pyridyl)imidazolidine-2,4-dione]: the IC50 in test [4] was 113 nM; in test [5], 137 nM; in test [2], 120 nM; in test [6], more than 20000 nM.

`O=C1NC(=O)C(CCC(=O)N2CCN(c3ccc(F)c(F)c3)CC2)(c2cccnc2)N1` (stereo not drawn) [compound 90, 5-[3-[4-(3,4-difluorophenyl)piperazin-1-yl]-3-oxo-propyl]-5-(3-pyridyl)imidazolidine-2,4-dione]: the IC50 in test [4] was 70 nM; in test [5], 85 nM; in test [2] it was more than 4000 nM; in test [6] it was 1210 nM.

Regarding `COc1ccc(C2(CCC(=O)N3CCN(c4cccc(Cl)c4)CC3)NC(=O)NC2=O)cc1` (stereo not drawn) [compound 78, 5-[3-[4-(3-chlorophenyl)piperazin-1-yl]-3-oxo-propyl]-5-(4-methoxyphenyl)imidazolidine-2,4-dione], the IC50 in test [4] is 96 nM; in test [5] it was 79 nM; in test [2], 2660 nM; in test [6] it was 2100 nM.

As to `CC(C)C1(CCC(=O)N2CCN(c3cc(Cl)cc(Cl)c3)CC2)NC(=O)NC1=O` (stereo not drawn) [compound 54, 5-[3-[4-(3,5-dichlorophenyl)piperazin-1-yl]-3-oxo-propyl]-5-isopropyl-imidazolidine-2,4-dione], the IC50 was 91 nM in test [4], 61 nM in test [5], 2270 nM in test [2] and more than 20000 nM in test [6].

Turning to `CC(C)(C)C1(CCC(=O)N2CCN(c3cccc(Cl)c3)CC2)NC(=O)NC1=O` (stereo not drawn) [compound 107, 5-tert-butyl-5-[3-[4-(3-chlorophenyl)piperazin-1-yl]-3-oxo-propyl]imidazolidine-2,4-dione], the half-maximal inhibitory concentration (IC50) was 147 nM in test [4], 172 nM in test [5], more than 4000 nM in test [2] and more than 20000 nM in test [6].

For the compound `CC1(CCC(=O)N2CCN(c3cncc(Br)c3)CC2)NC(=O)NC1=O` (stereo not drawn) [compound 86, 5-[3-[4-(5-bromo-3-pyridyl)piperazin-1-yl]-3-oxo-propyl]-5-methyl-imidazolidine-2,4-dione], the IC50 is 1790 nM in test [4], 1700 nM in test [5], more than 4000 nM in test [2] and more than 20000 nM in test [6].

On to `Cc1cc(Cl)ccc1N1CCN(C(=O)CCC2(C)NC(=O)NC2=O)CC1` (stereo not drawn) [compound 17, 5-[3-[4-(4-chloro-2-methyl-phenyl)piperazin-1-yl]-3-oxo-propyl]-5-methyl-imidazolidine-2,4-dione], for which the IC50 in test [4] is more than 3940 nM; in test [5] it was 2840 nM; in test [2], more than 4000 nM; in test [6] it was more than 20000 nM.

Take `O=C1NC(=O)C(CCC(=O)N2CCN(c3ccc(F)c(F)c3)CC2)(c2ccccn2)N1` (stereo not drawn) [compound 95, 5-[3-[4-(3,4-difluorophenyl)piperazin-1-yl]-3-oxo-propyl]-5-(2-pyridyl)imidazolidine-2,4-dione]: the half-inhibitory concentration (IC50) in test [4] was 40 nM; in test [5], 48 nM; in test [2], more than 4000 nM; in test [6], 2200 nM.

`Cc1ccccc1N1CCN(C(=O)CCC2(C3CC3)NC(=O)NC2=O)CC1` (stereo not drawn) [compound 35, 5-cyclopropyl-5-[3-[4-(o-tolyl)piperazin-1-yl]-3-oxo-propyl]imidazolidine-2,4-dione]: the IC50 is 103 nM in test [4], 99 nM in test [5], more than 4000 nM in test [2] and more than 20000 nM in test [6].

Regarding `COc1ccc(C2(CCC(=O)N3CCN(c4cc(Cl)ccc4C)CC3)NC(=O)NC2=O)cc1` (stereo not drawn) [compound 79, 5-[3-[4-(5-chloro-2-methyl-phenyl)piperazin-1-yl]-3-oxo-propyl]-5-(4-methoxyphenyl)imidazolidine-2,4-dione], the IC50 in test [4] is 53 nM; in test [5], 53 nM; in test [2] it was 277 nM; in test [6] it was more than 20000 nM.

`O=C1NC(=O)C(CCC(=O)N2CCN(c3cccc(F)c3)CC2)(c2ccccn2)N1` (stereo not drawn) [compound 103, 5-[3-[4-(3-fluorophenyl)piperazin-1-yl]-3-oxo-propyl]-5-(2-pyridyl)imidazolidine-2,4-dione]: the IC50 in test [4] is 24 nM; in test [5] it was 28 nM; in test [2], 4100 nM; in test [6] it was 2000 nM.
